The values below come from patent US7598244B2, “[1,2,4]triazolo[1,5,a]pyrimidin-2-ylurea derivative and use thereof” (Nippon Kayaku Kabushiki Kaisha, priority 2003, dated 2009).

The test system of this assay is MHC class I molecules of T1 cells (human lymphoma cell line 174×CEM.). Nature of the assay: Effect on expression of MHC class I from T1 cells (flow cytometry, MFI). To be noted: 3 days culture. Format: cell-based. As to the method: Effect on Expression of MHC Class I from T1 Cells (Human Lymphoma Cell Line 174×CEM.)
Using a 96-well flat bottom microplate, T1 cells (5.7×10^3 cells/200 μl/well) were cultured in an RPMI 1640 medium (Iwaki Glass) containing 10% fetal bovine serum (hereinafter abbreviated as FBS; Iruvine Scientific) in an incubator containing 5% carbon dioxide at 37° C. for 3 days, in the presence of a test compound having each concentration obtained by dilution at a common ratio route of 10 from 400 μM. After completion of the culture, the cells were stained with fluoroisothiocyanate-labeled mouse anti-human MHC class I monoclonal antibody (an antibody produced from the cell line W6/32 (ATCC No. CRL 1991)). The mean fluorescence intensity of the stained cells (hereinafter referred to as MFI) was measured using flow cytometry FACScan (BD). The obtained value was defined as an expression level of MHC class I molecules. A test compound concentration necessary for suppressing 20% of the expression level of MHC class I molecules (EC20 value) was calculated using the following formula (1).
[formula] • Eexp: MFI of cultured cells containing test compound after being stained with antibody • Cexp: MFI of cultured cells containing no test compounds after being stained with antibody
For orientation: Flow cytometry measures light scatter and fluorescence of single cells or particles in a stream.

Consider `O=C(Nc1nc2nccc(-c3cccc(OCc4cccnc4)c3)n2n1)NC1CCCCC1` [Example 170], for which the “EC20 (concentration necessary for suppressing 20% of the expression level of MHC class I molecules)” value was determined as 250 nM.

As to `CC(COCC1CCOCC1)NC(=O)Nc1nc2nccc(-c3cccs3)n2n1` (stereo not shown) [Example 331], the “EC20 (concentration necessary for suppressing 20% of the expression level of MHC class I molecules)” value was found to be 150 nM.

Turning to `COCCOCOc1ccc(-c2ccnc3nc(NC(=O)N[C@@H](C)c4cccc(OC)c4)nn23)cc1` [Example 227], the “EC20 (concentration necessary for suppressing 20% of the expression level of MHC class I molecules)” value was 70 nM.

Take `COc1ccc(-c2ccnc3nc(NC(=O)NC(C)c4cc(OC)c(OC)c(OC)c4)nn23)cc1` (stereo not shown) [Example 296]: the “EC20 (concentration necessary for suppressing 20% of the expression level of MHC class I molecules)” value is 70 nM.

`COCCCNC(=O)[C@@H](NC(=O)Nc1nc2nccc(-c3ccc(OC)cc3)n2n1)C(C)C` [Example 095]: the “EC20 (concentration necessary for suppressing 20% of the expression level of MHC class I molecules)” value came to 630 nM.

`COCC/C=C/[C@H](C)NC(=O)Nc1nc2nccc(-c3ccc(OC)cc3)n2n1` [Example 289]: the “EC20 (concentration necessary for suppressing 20% of the expression level of MHC class I molecules)” value came out at 110 nM.

Regarding `COc1ccc(-c2ccnc3nc(NC(=O)NC4CCC(C(=O)N(C)C)CC4)nn23)cc1` (stereo not shown) [Example 169], the “EC20 (concentration necessary for suppressing 20% of the expression level of MHC class I molecules)” value is 660 nM.

For the compound `O=C(Nc1nc2nccc(-c3ccccc3)n2n1)NC1CCCCC1` [Example 014], the “EC20 (concentration necessary for suppressing 20% of the expression level of MHC class I molecules)” value amounted to 570 nM.

On to `COc1cccc(-c2ccnc3nc(NC(=O)NC4CCCCC4)nn23)c1` [Example 017], for which the “EC20 (concentration necessary for suppressing 20% of the expression level of MHC class I molecules)” value worked out at 220 nM.

Turning to `COc1ccc(-c2ccnc3nc(NC(=O)N[C@@H](C)C(=O)NCCN4CCCCC4)nn23)cc1.Cl` [Example 125], the “EC20 (concentration necessary for suppressing 20% of the expression level of MHC class I molecules)” value is 820 nM.

As for `COc1ccc(-c2ccnc3nc(NC(=O)N[C@H](C(=O)N(C)C)C(C)C)nn23)cc1` [Example 056], the “EC20 (concentration necessary for suppressing 20% of the expression level of MHC class I molecules)” value stood at 550 nM.

Turning to `O=C(Nc1nc2nccc(-c3cccc(OCc4ccccc4)c3)n2n1)NC1CCCCC1` [Example 115], the “EC20 (concentration necessary for suppressing 20% of the expression level of MHC class I molecules)” value turned out to be 600 nM.

As to `CC(C)NC(=O)Nc1nc2nccc(-c3cccc(OCCCN(C)C)c3)n2n1` [Example 192], the “EC20 (concentration necessary for suppressing 20% of the expression level of MHC class I molecules)” value came out at 900 nM.

In the case of `COc1ccc(-c2ccnc3nc(NC(=O)NC(C)CCN(C)C(=O)C(C)(C)OC(C)=O)nn23)cc1` (stereo not shown) [Example 298], the “EC20 (concentration necessary for suppressing 20% of the expression level of MHC class I molecules)” value worked out at 80 nM.

On to `COc1ccc(-c2ccnc3nc(NC(=O)NC(C)CCCN(C)C(C)=O)nn23)cc1` (stereo not shown) [Example 283], for which the “EC20 (concentration necessary for suppressing 20% of the expression level of MHC class I molecules)” value was 200 nM.

For the compound `COC(=O)[C@H](C)NC(=O)[C@H](C)NC(=O)Nc1nc2nccc(-c3ccc(OC)cc3)n2n1` [Example 122], the “EC20 (concentration necessary for suppressing 20% of the expression level of MHC class I molecules)” value worked out at 340 nM.

Consider `COc1cccc([C@H](C)NC(=O)Nc2nc3nccc(-c4cccc(OCCN(C)C)c4)n3n2)c1` [Example 205], for which the “EC20 (concentration necessary for suppressing 20% of the expression level of MHC class I molecules)” value turned out to be 190 nM.

As for `CC(NC(=O)Nc1nc2nccc(-c3ccc4c(c3)OCO4)n2n1)c1ccc2c(c1)OCO2` (stereo not shown) [Example 301], the “EC20 (concentration necessary for suppressing 20% of the expression level of MHC class I molecules)” value was 640 nM.

In the case of `COc1ccc(-c2ccnc3nc(NC(=O)NCc4ccc5c(c4)OCO5)nn23)cc1` [Example 215], the “EC20 (concentration necessary for suppressing 20% of the expression level of MHC class I molecules)” value stood at 150 nM.

As to `COc1ccc(-c2ccnc3nc(NC(=O)N[C@H](C(=O)NCC4CCCCC4)C(C)C)nn23)cc1` [Example 092], the “EC20 (concentration necessary for suppressing 20% of the expression level of MHC class I molecules)” value came to 200 nM.

Regarding `CC(C)CCC[C@H](C)NC(=O)Nc1nc2nccc(-c3ccc(OCc4ccccc4)cc3)n2n1` [Example 254], the “EC20 (concentration necessary for suppressing 20% of the expression level of MHC class I molecules)” value was 230 nM.

Consider `COc1ccc(-c2ccnc3nc(NC(=O)N[C@@H](C)C(=O)N4CCOCC4)nn23)cc1` [Example 118], for which the “EC20 (concentration necessary for suppressing 20% of the expression level of MHC class I molecules)” value is 610 nM.
